{"source": "paper PMC11931052", "about": "“Efficacy of dispirotripiperazine PDSTP in a golden Syrian hamster model of SARS-CoV-2 infection” (Frontiers in Microbiology, 2025)", "key": {"HCoV-229E": {"tested_on": "HCoV-229E", "experiment": "Plaque reduction assay, HCoV-229E in Vero E6 cells", "assay_type": "cell-based", "method": "(§1) Vero E6 cells were incubated in the presence of PDSTP and reference compounds (100.0, 20.0, 4.0, and 0.8 μM concentrations) for 1 h at 37°C in a 5% CO2 and then infected for 1 h with 250 μL of the corresponding virus (SARS-CoV-2 PV10734 or HCoV-229E) dilutions to obtain 50–100 PFU/well. The plates were then incubated for 1 h at 37°C in a 5% CO2 atmosphere. Following the removal of the unabsorbed virus, 400 μL of the medium (D-MEM with L-glutamine, 4,500 mg/L D-glucose, and 1% inactivated FBS) containing 0.75% methyl-cellulose (M0512, viscosity 4,000 cP, Sigma-Aldrich, United States) and the serial dilutions of the compounds were added and incubated for 4 (SARS-CoV-2) or 2 (HCoV-229E) days at 37°C in a 5% CO2 atmosphere. Subsequently, the cells were fixed and stained with a 0.2% crystal violet solution (V5265, Sigma-Aldrich, United States) and then the number of plaques was calculated. The degree of cell growth/viability and viral multiplication at each drug concentration tested was expressed as a percentage of the untreated control. Concentrations resulting in 50% inhibition (CC50 or EC50) were determined using linear regression analysis."}, "[1]": {"tested_on": "SARS-CoV-2 clinical isolate VR PV10734", "experiment": "Plaque reduction assay, SARS-CoV-2 VR PV10734 in Vero E6 cells", "assay_type": "cell-based", "conditions": "Severe acute respiratory syndrome coronavirus 2, Vero C1008, mean ± SD, read-out: Antiviral activity IC50 against coronaviruses, SARS-CoV-2 clinical isolate VR PV10734, PR", "method": "as §1"}, "[2]": {"experiment": "Cytotoxicity (MTT test) in Vero-76 cells", "assay_type": "cell-based, African Green Monkey (Cercopithecus aethiops)", "conditions": "African green monkey", "method": "The microtetrazolium test (MTT test) was used to study the cytotoxicity of the compounds. Vero cells were seeded in 96-well plates at an initial density of 3×10^5 cells/mL, in Gibco Dulbecco’s Modified Eagle Medium supplemented with L-glutamine and 25 mg/L kanamycin, and 10 % fetal bovine serum (FBS) (DMEM, Thermo Fisher Scientific, Waltham, MA USA). Cell cultures were then incubated at 37 °C in a 5 % CO2 atmosphere, in the absence or presence of serial dilutions of test compounds. The test medium used for the cytotoxic assay as well as for the antiviral assay contained 1 % of the appropriate serum. Cell viability was determined after 72 h at 37 °C by the MTT method as previously reported. The cell viability was expressed as a percentage of the control. The 50% cytotoxic concentration (CC50) of each compound was defined as the concentration of the compound that reduced the absorbance (OD570) of the treated cells to 50% when compared with that of untreated cells. CC50 mean values were calculated from at least three independent experiments."}, "HCoV-OC43": {"tested_on": "HCoV-OC43", "experiment": "MTT test, HCoV-OC43 in Vero-76 cells", "assay_type": "cell-based", "conditions": "Betacoronavirus 1, OC43, Vero 76, read-out: IC50 (HCoV-OC43)"}, "[3]": {"tested_on": "SARS-CoV-2 ancestral PV10734 strain", "experiment": "Yield reduction assay in Calu-3 cells, SARS-CoV-2 ancestral PV10734 strain", "assay_type": "cell-based", "conditions": "PDSTP 20 and 4 μM, day 3 post-infection, p < 0.0001"}, "SARS-COV-2 PV10734 [4]": {"tested_on": "SARS-COV-2 PV10734", "experiment": "Virucidal activity assay", "conditions": "20 µM; 4°C and 37°C for 2 hours", "method": "PDSTP (20 µM) was incubated with 3×10^5 PFU/mL of SARS-COV-2 PV10734 at either 4 and 37 °C for 2 hours. The mixture of the viral sample without a test compound was used as an untreated control. At the end of the incubation period, samples were serially diluted in media and titers were determined on Vero-76 cells at high dilutions, at which the compound was not active. Virus titers were determined by plaque assay in Vero-76 cells."}, "SARS-COV-2 PV10734 [5]": {"tested_on": "SARS-COV-2 PV10734", "experiment": "Time-of-addition and cell pre-treatment assay in Vero cells", "assay_type": "cell-based"}, "[6]": {"tested_on": "SARS-CoV-2 B.1.1 GR MM1/2020/Aug-21 clinical isolate", "experiment": "Golden Syrian hamster model of SARS-CoV-2-induced pneumonia", "assay_type": "in vivo", "conditions": "for Body weight: day 0"}, "[7]": {"experiment": "Acute toxicity, intravenous administration, mice", "conditions": "both sexes, mouse, in vivo, Mice (M/F)"}, "[8]": {"experiment": "Acute toxicity, intraperitoneal administration, mice", "conditions": "both sexes, mouse, in vivo, ip, Mice (M/F)"}, "[9]": {"experiment": "Acute toxicity, topical application, rats", "assay_type": "in vivo", "conditions": "for LD50: acute toxicity, topical application"}, "[10]": {"experiment": "Acute toxicity, intragastric administration, mice", "assay_type": "in vivo", "conditions": "maximum dose 1000 mg/kg"}, "[11]": {"tested_on": "Salmonella typhimurium strains TA 97, TA 98 and TA 100", "experiment": "Ames test (Salmonella/microsome test)", "conditions": "0.1 to 1000 µg/ cup; MA+ and MA-", "method": "PDSTP doses tested: 0.1 to 1000 µg/ cup.\nTest subjects: Salmonella typhimurium strains TA 97, TA 98 and TA 100.\nMetabolic activation: MA+ and MA-."}, "[12]": {"experiment": "Immunotoxicity study, long-term topical application", "assay_type": "in vivo", "description": "Conclusion: PDSTP compound has no effect on humoral immunity and functional activity of macrophages when applied topically for 30 days in doses up to 100 TD."}, "[13]": {"experiment": "Reproductive toxicity: generative function of sexually mature animals", "assay_type": "in vivo, white laboratory rats", "conditions": "10% solution topically on 5% of body surface area for 25 days", "description": "PDSTP doses tested: 10% solution\nTest subjects: white laboratory rats of both sexes\nThe drug was applied topically on 5% of body surface area (3x5 cm area) for 25 days."}, "[14]": {"conditions": "10 mg/kg, severity score 0 to 6"}}, "note": "Where “and” joins values, the source holds several entries; their conditions need not be identical. Equal entries are not always repeated. Entries after “also recorded” stand apart in the source; their conditions may differ."}
{"smiles": "Cc1nc(N2CC[N+]3(CC2)CC[N+]2(CCNCC2)CC3)c([N+](=O)[O-])c(N2CC[N+]3(CC2)CC[N+]2(CCNCC2)CC3)n1.Cl.Cl.O.O.O.O.O.O.O.O.O.[Cl-].[Cl-].[Cl-].[Cl-]", "note": "[PDSTP, 3,3′-(2-methyl-5-nitropyrimidine-4,6-diyl)bis-3,12-diaza-6,9-diazonia-dispiro[5.2.5.2]hexadecane tetrachloride dihydrochloride nonahydrate]", "values": [{"measurement": "Antiviral activity against alphacoronavirus HCoV-229E", "setting": "HCoV-229E", "result": "no in vitro activity; also recorded: No antiviral activity was detected"}, {"measurement": "IC50", "setting": "HCoV-229E; Human coronavirus 229E, Vero C1008, Vero E6, mean ± SD, read-out: Antiviral activity IC50 against coronaviruses, HCoV-229E, PR", "result": "> 100000", "unit": "nM"}, {"measurement": "IC50", "setting": "[1]", "result": "1800 ± 300", "unit": "nM"}, {"measurement": "CC50 at 72 h", "setting": "[2]", "result": "> 100000", "unit": "nM"}, {"measurement": "IC50", "setting": "HCoV-OC43", "result": "700 ± 400", "unit": "nM"}, {"measurement": "Reduction of viral titer", "setting": "[3]", "result": "~100", "unit": "fold"}, {"measurement": "Virucidal activity (direct impact on viral infectivity)", "setting": "SARS-COV-2 PV10734 [4]", "result": "no direct impact; also recorded: lacks virucidal activity"}, {"measurement": "Antiviral activity, pre-treatment and early stages of infection", "setting": "SARS-COV-2 PV10734 [5]", "result": "exhibited antiviral activity"}, {"measurement": "Inhibitory effect at the later stages of infection", "setting": "SARS-COV-2 PV10734 [5]", "result": "barely noticeable"}, {"measurement": "Animals with completely reduced SARS-CoV-2-induced lung pathology", "setting": "[6]; 10 mg/kg", "result": "three"}, {"measurement": "Body weight", "setting": "[6]; 10 mg/kg", "result": "100,7±0,3 gram"}, {"measurement": "Animals with lung severity score \"mild\"", "setting": "[6]; [14]", "result": "two"}, {"measurement": "Animals with lung severity score \"none\"", "setting": "[6]; [14]", "result": "three out of six"}, {"measurement": "Animals with completely reduced SARS-CoV-2-induced lung pathology", "setting": "[6]; 20 mg/kg", "result": "two"}, {"measurement": "Body weight", "setting": "[6]; 20 mg/kg", "result": "94,1±0,4 gram"}, {"measurement": "Body weight", "setting": "[6]; 40 mg/kg", "result": "96,7±0,3 gram"}, {"measurement": "Alveolar edema (histopathology)", "setting": "[6]; 10 or 20 mg/kg", "result": "moderate"}, {"measurement": "Reduction in lung viral titer vs negative control", "setting": "[6]; […], not statistically significant", "result": 1.5, "unit": "log10"}, {"measurement": "Reduction of viral RNA copy levels in lung tissue vs vehicle", "setting": "[6]; […], statistically non-significant", "result": 2.2, "unit": "log10"}, {"measurement": "Core body temperature", "setting": "[6]; all animal groups", "result": "within the normal range"}, {"measurement": "Mortality", "setting": "[6]; all animal groups", "result": "None of the animals died"}, {"measurement": "Body weight loss", "setting": "[6]; hamster, in vivo", "result": "no more than 10%"}, {"measurement": "Reduction of viral RNA copy levels in lung tissue vs vehicle", "setting": "[6]; hamster, in vivo", "result": "1.6 log10 and 2.0 log10"}, {"measurement": "Viral RNA copy levels in turbinate tissue", "setting": "[6]; hamster, in vivo", "result": "statistically significantly diminished"}, {"measurement": "LD50", "setting": "[7]", "result": 150, "unit": "mg/kg"}, {"measurement": "LD50", "setting": "[8]", "result": 192, "unit": "mg/kg"}, {"measurement": "LD50", "setting": "[9]", "result": "greater than 31.25 mg/cm^2"}, {"measurement": "Toxicity and local irritant effects on skin", "setting": "[9]; maximum regulated amount applied to the skin", "result": "No manifestations of toxicity and local irritant effects were observed"}, {"measurement": "LD50", "setting": "[9]; rat, in vivo, topical or ocular, 2500 mg/kg, read-out: LD50", "result": "> 2500", "unit": "mg/kg"}, {"measurement": "Clinical signs", "setting": "[10]", "result": "piloerection and diarrhea, deterioration of hair coat, decreased motor activity, and decreased body weight"}, {"measurement": "Mortality", "setting": "[10]", "result": "The death of animals was not recorded"}, {"measurement": "Mutagenic activity (Ames test)", "setting": "[11]", "result": "no mutagenic activity"}, {"measurement": "Effect on cellular immunity", "setting": "[12]; long-term topical applications, immunosuppression only at maximum dose of 100 TD, reversible 14 days after withdrawal", "result": "tends to suppress cellular immunity"}, {"measurement": "Effect on humoral immunity and functional activity of macrophages", "setting": "[12]; topically for 30 days in doses up to 100 TD", "result": "no effect"}, {"measurement": "Effect on generative function of sexually mature animals", "setting": "[13]", "result": "no pathological effect"}]}
